According to patent US9205137B2, “Maturation of gastrointestinal tract” (ANARA AB, priority 2010, dated 2015):

Legend:
suckling rats [1] = test: Set I: body weight, GI and lymphoid organ weights, stomach pH after individual enzymes or mixture, Example 3
Protocol: All experiments were performed in young suckling rats by feeding them from 14 days of age via stomach tube for 3 continuous days (ones a day). One day after last treatment rats were euthanized and plasma and organs proceeded to study structural and functional changes of gastrointestinal system.
The pups were kept with their dam until dissection day (day 17).
In this set suckling pups were divided into five groups; control (water) amylase 10 000 USP/rat/day, lipase 4 000 USP/rat/day, protease 15 000 USP/rat/day, and mixture of these enzyme with corresponding activities per rat and day. This study was evaluating the effects of different pancreatic-like enzymes on the gut maturation and functioning and had 3 individual litters; n=12, n=10 and n=13, totally n=7 pups per each group. Each of the enzymes (Amylase, Protease and Lipase) (Sigma Aldrich) was available in the powder form and was resolved in distilled water prior to stomach feeding during days 14, 15 and 16. The volume of administered enzymes and distilled water (for control groups) was 0.01 ml/g BW. Each time, prior to the feeding procedure, the pups were weighed. […] Then 3 hours later, the pups were sedated with CO2 and anaesthetized by subcutaneous injection with a mixture of ketamine (Ketalar®, Pfizer, New York, USA, NaCl and azaperone (Stresnil®, Janssen Pharmaceutica, Beerse, Belgium), 0.01 ml/g BW. After opening the abdomen of the rats, 1 ml of blood was collected from heart by using syringes containing protease inhibitor and EDTA (50 μl) as anticoagulant and was transferred into ice-chilled tubes. After this, the pancreas was immediately dissected and rinsed with cold 0.9% NaCl, weighted and stored at −70 C. The SI was removed and its length was measured then divided into two halves, proximal and distal. Each segment was flushed out with cold 0.9% NaCl to clean the lumen and was then weighed separately. […] The stomach was removed and its content was collected into the tube (for measuring its pH) and frozen. Then cecum was dissected out, opened, rinse and weighed as well as liver and lymphoid organs spleen and thymus were dissected and weighted.
The contents of the stomach were de-frozen and then resolved with 1 ml of cold 0.9% NaCl. After resolving, they were centrifuged and the pH was measured in the supernatant using pH-meter.
All data are presented as mean±standard deviation (SD). Statistical comparisons between each group and control group were performed using the t-test. Results were considered as significant when P<0.05.

suckling 14 d old rats = test: Exocrine pancreatic function (trypsin activity in pancreatic homogenates), Example 6; assay type: in vivo, rat; conditions: 3 d oral gavage, in words (FIG. 10)
Source text: Treated groups were compared to control, *p<0.05.
The same rat model as in Experiments 3-5 was used.
The effect of microbial-derived enzymes with pancreatic activity: protease, lipase, amylase and their mixture on exocrine pancreatic secretion after 3 d of oral gavage to suckling 14 d old rats (see experiment 3-5 above). Treated groups were compared to control, *p<0.05

suckling piglets = test: Suckling pig model II: marker molecules absorption in vivo after microbial protease, Experiment 10; conditions: protease treated piglets vs control
Protocol: All piglets were kept with sow until the weaning day. Piglets from 5-6 litters divided into 2 groups and treated with microbial protease (Sigma) (enz group) or water (cont) (n=28 per group), total 56. The dose of enzymes was 60 mg/ml with activity 1000 USP per 1 mg, the administration volume was 4 ml/kg b. wt, the frequency of administration was every second day (ones a day). Treatment via gavage feeding was started at 8 d of age and was done 3 times, (i.e. 8, 10, 12 d of life).
Separate piglets (6 enzyme treated and 6 control pigs) were fed with marker molecule solution (Bovine serum albumin (BSA) in concentration 125 mg/ml and sodium fluorescein (NaF) in concentration 2.5 mg/ml; the administration volume was 4 ml/kg b.wt) at age 14 d of life and 27 d of life (the weaning day). Blood was collected at 0, […], 1, 2, 4, 8, and 24 hours after marker-cocktail feeding.

suckling rats [2] = test: Set I: intestinal morphology of distal SI, Example 3; assay type: in vivo, Rattus norvegicus; conditions: distal part of SI, in words
Protocol: All samples collected for histology were fixed with Bouin's solution for 24 hours and then stored in 70% ethanol, dehydrated, embedded into the paraffin and then cut into sections with 5 μm thickness. The tissue sections were transferred onto the slides, rehydrated and stained with H&E according to the standard technique. After mounting under cover slips samples were examined using light microscopy to estimate ratio between total length of the villus and length of the adult type enterocytes using ImageJ program.

suckling rats [3] = test: Papain vs microbial protease: intestinal disaccharidase activity in proximal SI, Example 8; assay type: in vivo, Rattus norvegicus; conditions: proximal part of SI, in words (FIG. 13)
Source text: The litter size for each dam was limited to 12 or 13 pups, to reduce variability.
Suckling pups were divided into 3 groups depending on the treatments; microbial protease as a positive control, water as negative control and enzyme from papaya fruit (papain) (in total; protease=7, papain=8, control=7). The enzymes are available in the market in form of powders and were resolved in distilled water prior to stomach feeding during 14-16 d of age. The administered dose for each enzyme was 10000 USP/animal. The volume of administered enzymes and water (for control groups) was 0.01 ml/g b.wt. Prior to the feeding procedure, the pups were weighed. […] Three hours later, the pups were anaesthetized and organs were dissected out for analyses.
The activities of the brush-border enzymes lactase, maltase and sucrase were analyzed in the proximal part of the SI in groups treated with papain and protease.

## Proteinase from Aspergillus melleus [Protease]
Suckling rats [1]; 3 days treatment, day 17
  Body weight: 33.6 ± 1.9 gr
  Cecum: 4.0 ± 0.5 mg/g BW
  Distal SI: 17.8 ± 2.5 mg/g BW
  Liver: 35.8 ± 2.5 mg/g BW
  Pancreas: 4.3 ± 0.4 mg/g BW
  Proximal SI: 24.7 ± 3.5 mg/g BW
  SI length: 1.7 ± 0.1 cm/g BW
  Spleen: 3.4 ± 0.5 mg/g BW
  Stomach: 7.2 ± 0.7 mg/g BW
  Thymus: 3.96 ± 0.4 mg/g BW
Suckling rats [1]; after receiving the first dose
  diarrhoea: diarrhoea observed after receiving the first dose
Suckling rats [1]; stomach contents, day 17
  pH: 3.5 ± 0.3
Suckling 14 d old rats
  stimulation of the pancreatic function: most efficient enzyme for stimulation of the pancreatic function
Suckling piglets; in words (FIG. 20A)
  intestinal permeability for BSA: decreased intestinal permeability
Suckling piglets; in words (FIG. 20B)
  intestinal permeability for NaF: decreased intestinal permeability
Suckling rats [2]
  replacement of vacuolated enterocytes by adult type enterocytes: all of the vacuolated enterocytes were replaced with adult type enterocytes
Suckling rats [3]
  activity of maltase compared to control: significantly increased
  activity of sucrase compared to control: significantly increased
